The test system of experiment [1] is Chick embryo DRG neurons. Kind of experiment: automated MTT neurotrophic assay. The experiment is classed as cell-based. Particulars: HPLC fractions of ten cyclized/oxidized NGF 29-36 region peptides. As for the experimental part:
(§1) Bioassays were performed as previously described (Manthorpe et al, "An automated colorimetric microassay for neuronotrophic factors", Dev. Brain Res. 25:191-198 (1986)). Dorsal root ganglia were dissected from embryonic day 8 chick embryos and placed in calcium and magnesium-free Dulbecco's balanced salt solution on ice. […] During this incubation non-neuronal cells (Schwann cells, fibroblasts) more readily attached to the substratum leaving a supernatant containing an enriched neuronal population (80-85% neurons). […]
(§2) The bioassays used for measuring the NGF agonist activity of the compounds of this invention were initially characterized using NGF as a control. […] The neurotrophic activity of NGF is most easily assessed by measuring the number of cells surviving and bearing neurites; however, the lack of neurites in peptide-supported cultures required the use of additional criteria to assess peptide effect. In order to more accurately determine neuronal survival, MTT was added to cultures at 16 hours and cultures assessed under phase contrast microscopy at 24 hours. Intact cells characteristic of surviving neurons which also contained blue MTT product were counted. […] In subsequent studies, activity of both peptides and NGF was assessed by counting the number of intact cells with blue MTT product (morphological/MTT assay) and by the automated MTT assay. […]

The test system of experiment [2] is Chick embryo DRG neurons. Kind of experiment: morphological/MTT assay of neuronal survival. The experiment is classed as cell-based. Conditions: HPLC fractions of cyclized/oxidized, scrambled and linear P7. How it is done: as §1, §2
Experiment [3] has as its system Chick embryo DRG neurons. Kind of experiment: neurite outgrowth of cultured neurons. The experiment is classed as cell-based. As for the experimental part: as §1
Neuronal survival and neurite outgrowth were assessed by a combination of morphological criteria described previously (Longo et al, "The in vitro biological effect of nerve growth factor is inhibited by synthetic peptides" Cell Regulation 1:189-195 (1990)) and an MTT calorimetric assay (Manthorpe et al., "An automated colorimetric microassay for neuronotrophic factors", Dev. Brain Res. 25:191-198 (1986)). […] The blue product can be quantitated by lysing cells with acid alcohol to solubilize the blue product and measuring overall optical density or by counting the number per area of intact surviving neurons with blue dye. […] For each peptide or NGF concentration, duplicate wells were counted in each bioassay and four values (two strips counted/well) averaged. In other assays, cells were lysed at 24 hours in acid alcohol and the MTT product was dissolved and quantified. […]

Another experiment addresses T1, NGF p75 receptor (Gallus gallus, UniProt P18519).
T1 construct: Dorsal root ganglia were dissected from embryonic day 8 chick embryos; endogenous in cells; host or cells: primary neurons dissociated from embryonic day 8 chick dorsal root ganglia
T1 sequence (P18519 20-416): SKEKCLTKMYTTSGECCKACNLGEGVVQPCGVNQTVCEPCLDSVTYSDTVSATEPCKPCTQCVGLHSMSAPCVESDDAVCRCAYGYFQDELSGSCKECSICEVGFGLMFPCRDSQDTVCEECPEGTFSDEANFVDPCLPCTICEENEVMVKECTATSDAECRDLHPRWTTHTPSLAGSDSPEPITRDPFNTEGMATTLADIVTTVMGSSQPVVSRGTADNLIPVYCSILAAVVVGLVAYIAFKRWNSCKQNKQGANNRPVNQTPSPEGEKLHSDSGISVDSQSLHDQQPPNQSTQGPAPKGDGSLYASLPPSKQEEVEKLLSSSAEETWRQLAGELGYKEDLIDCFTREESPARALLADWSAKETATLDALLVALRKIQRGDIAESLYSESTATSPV
Description: survival-promoting activity in the presence of p75 antiserum (antibody 9651). Particulars: p75 antiserum 1:100 final dilution; morphological/MTT assay. The experiment is classed as cell-based, chick. How it is done:
Antiserum (antibody 9651) directed against the third and fourth cysteine rich repeats of the extracellular domain of mouse p75 was obtained as described in Huber (infra). […] Antiserum and control non-immune serum were tested at final dilutions of 1:100 in the presence of NGF or peptide.
To determine if activity of P7 and P7-scrambled peptides was dependent on p75 , their activity in the presence of p75 antiserum (1:100 final dilution) which inhibits NGF neurotrophic activity was measured. […] In 15 bioassays, control background survival was 14±2% (S.E.) of the NGF maximum compared to a background in the presence of p75 antiserum of 13±2% in 5 of the same 15 assays.
For orientation: Formazan colour is commonly taken as a measure of viable cells.

The source of these data is patent US5958875A, “Synthetic peptides derivatives with nerve growth factor-like neurotrophic activity” (The Regents of the University of California, priority 1996, dated 1999).

Entries after “also recorded” stand apart in the source; their conditions may differ.

Turning to IPenKGKEVCT [Peptide P7], the “survival-promoting activity (in words)” value in the experiment on Chick embryo DRG neurons [1] was “highest activity at the lowest concentrations; also recorded: greatest survival-promoting activity at the lowest concentration”. Also, the “survival-promoting activity of P7 forms (in words)” value in the experiment on Chick embryo DRG neurons [2] is given as “showed activity; also recorded: significantly greater activity than P7-scrambled peptides”. Moreover, in the experiment with Chick embryo DRG neurons [3], the “neurite outgrowth (in words)” value is given as “continued to lack neurites”.

B1: NGF: Mouse submaxillary β-NGF purified via 7S NGF (protein, UniProt P01139 122-241, looked up)
Beta-nerve growth factor: SSTHPVFHMGEFSVCDSVSVWVGDKTTATDIKGKEVTVLAEVNINNSVFRQYFFETKCRASNPVESGCRGIDSKHWNSYCTTTHTFVKALTTDEKQAAWRFIRIDTACVCVLSRKATRRG
modifications: Beta-nerve growth factor
notes: Mouse submaxillary β-NGF purified via 7S NGF
On to B1, for which the “inhibition of survival-promoting activity by p75 antiserum, average over the three concentrations tested” value in the experiment with NGF p75 receptor is listed as 40%.
